Measured values taken from patent US20240400564A1 (Syndax Pharmaceuticals, Inc, priority 2021, published 2024).

Columns and labels:
[1] = tested on: MLLr leukemia cell line MV4-11; test: Cell proliferation assay MV4;11 (CellTiter-Glo, 72 hours); type: cell-based; conditions: Homo sapiens; MV4-11 cells, 72 hours, CellTiter-Glo; read-out: MV4; 11 IC50
Method in brief: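 Cells in IMDM/10% FBS, seeded from a 15,000 cells/ml suspension, were exposed for 72 h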

[2] = molecular target: hERG (Homo sapiens, UniProt Q12809); test: Patch clamp assay (hERG tail currents, whole-cell)
Chain of hERG (Q12809 whole entry): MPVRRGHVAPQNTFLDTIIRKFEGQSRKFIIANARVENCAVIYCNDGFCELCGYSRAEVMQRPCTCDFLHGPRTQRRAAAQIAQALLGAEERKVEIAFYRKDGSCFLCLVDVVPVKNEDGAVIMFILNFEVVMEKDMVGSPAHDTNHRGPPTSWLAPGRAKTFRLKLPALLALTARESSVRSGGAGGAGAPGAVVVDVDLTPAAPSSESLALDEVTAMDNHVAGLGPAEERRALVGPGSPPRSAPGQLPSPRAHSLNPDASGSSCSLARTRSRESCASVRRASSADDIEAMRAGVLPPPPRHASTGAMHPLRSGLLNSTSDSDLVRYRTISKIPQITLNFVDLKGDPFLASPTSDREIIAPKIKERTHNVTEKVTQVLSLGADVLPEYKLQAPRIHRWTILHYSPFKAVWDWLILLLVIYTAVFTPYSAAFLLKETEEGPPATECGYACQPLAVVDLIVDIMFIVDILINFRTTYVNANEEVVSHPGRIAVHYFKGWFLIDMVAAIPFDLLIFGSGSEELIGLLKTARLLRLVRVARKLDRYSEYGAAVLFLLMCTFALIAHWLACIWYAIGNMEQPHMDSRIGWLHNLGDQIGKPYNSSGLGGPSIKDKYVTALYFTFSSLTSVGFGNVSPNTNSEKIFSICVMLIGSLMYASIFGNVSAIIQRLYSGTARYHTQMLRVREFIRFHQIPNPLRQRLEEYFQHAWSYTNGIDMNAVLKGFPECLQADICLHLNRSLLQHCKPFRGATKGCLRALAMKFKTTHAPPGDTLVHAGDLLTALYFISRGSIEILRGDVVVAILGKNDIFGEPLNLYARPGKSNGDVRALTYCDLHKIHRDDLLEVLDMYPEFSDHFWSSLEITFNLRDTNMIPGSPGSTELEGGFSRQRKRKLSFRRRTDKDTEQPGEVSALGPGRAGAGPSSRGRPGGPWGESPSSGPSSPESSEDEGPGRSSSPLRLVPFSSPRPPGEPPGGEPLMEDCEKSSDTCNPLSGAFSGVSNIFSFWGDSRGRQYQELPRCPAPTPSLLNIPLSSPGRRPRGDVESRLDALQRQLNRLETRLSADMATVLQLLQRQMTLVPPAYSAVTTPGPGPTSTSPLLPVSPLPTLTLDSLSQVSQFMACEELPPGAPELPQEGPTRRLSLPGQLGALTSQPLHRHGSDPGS

| SMILES | IC50 [1] [nM] | hERG % Remaining ([2]; 30 μM compound) | hERG % Remaining ([2]; 10 μM compound) |
| --- | --- | --- | --- |
| CCN(C(=O)c1cc(F)ccc1Oc1cncnc1N1CC2(CCN(C[C@@H]3CC[C@@H](NS(=O)(=O)c4c[nH]c(=O)cc4C)CO3)CC2)C1)C(C)C [Example 75, N-Ethyl-5-fluoro-N-isopropyl-2-((4-(7-(((2S,5R)-5-((4-methyl-6-oxo-1,6-dihydropyridine)-3-sulfonamido)tetrahydro-2H-pyran-2-yl)methyl)-2,7-diazaspiro[3.5]nonan-2-yl)pyrimidin-5-yl)oxy)benzamide] | < 100 | +++ (≥66%) | – |
| Cc1ncc(S(=O)(=O)N[C@@H]2CC[C@@H](CN3CCC4(CC3)CN(c3ncncc3Oc3ccc(F)cc3C(=O)N(C(C)C)C(C)C)C4)OC2)o1 [Example 80, 5-Fluoro-N,N-diisopropyl-2-((4-(7-(((2S,5R)-5-((2-methyloxazole)-5-sulfonamido)tetrahydro-2H-pyran-2-yl)methyl)-2,7-diazaspiro[3.5]nonan-2-yl)pyrimidin-5-yl)oxy)benzamide] | < 100 | + (<33%) | ++ (233% and ≤66%) |
| Cc1nc(S(=O)(=O)N[C@@H]2CC[C@@H](CN3CCC4(CC3)CN(c3ncncc3Oc3ccc(F)cc3C(=O)N(C(C)C)C(C)C)C4)OC2)cs1 [Example 81, 5-Fluoro-N,N-diisopropyl-2-((4-(7-(((2S,5R)-5-((2-methylthiazole)-4-sulfonamido)tetrahydro-2H-pyran-2-yl)methyl)-2,7-diazaspiro[3.5]nonan-2-yl)pyrimidin-5-yl)oxy)benzamide] | < 100 | ++ (233% and ≤66%) | ++ (233% and ≤66%) |
| CC(C)N(C(=O)c1cc(F)ccc1Oc1cncnc1N1CC2(CCN(C[C@@H]3CC[C@@H](NS(=O)(=O)c4cnn(C)c4Cl)CO3)CC2)C1)C(C)C [Example 82, 2-((4-(7-(((2S,5R)-5-((5-Chloro-1-methyl-1H-pyrazole)-4-sulfonamido)tetrahydro-2H-pyran-2-yl)methyl)-2,7-diazaspiro[3.5]nonan-2-yl)pyrimidin-5-yl)oxy)-5-fluoro-N,N-diisopropylbenzamide] | < 100 | + (<33%) | ++ (233% and ≤66%) |
| CC(C)N(C(=O)c1cc(F)ccc1Oc1cncnc1N1CC2(CCN(C[C@@H]3CC[C@@H](NS(=O)(=O)c4cnn(C5CC5)c4)CO3)CC2)C1)C(C)C [Example 83, 2-((4-(7-(((2S,5R)-5-((1-Cyclopropyl-1H-pyrazole)-4-sulfonamido)tetrahydro-2H-pyran-2-yl)methyl)-2,7-diazaspiro[3.5]nonan-2-yl)pyrimidin-5-yl)oxy)-5-fluoro-N,N-diisopropylbenzamide] | < 100 | ++ (233% and ≤66%) | +++ (≥66%) |
| Cc1ncc(S(=O)(=O)N[C@@H]2CC[C@@H](CN3CCC4(CC3)CN(c3ncncc3Oc3ccc(F)cc3C(=O)N(C(C)C)C(C)C)C4)OC2)s1 [Example 84, 5-Fluoro-N,N-diisopropyl-2-((4-(7-(((2S,5R)-5-((2-methylthiazole)-5-sulfonamido)tetrahydro-2H-pyran-2-yl)methyl)-2,7-diazaspiro[3.5]nonan-2-yl)pyrimidin-5-yl)oxy)benzamide] | < 100 | + (<33%) | ++ (233% and ≤66%) |
| CC(C)N(C(=O)c1cc(F)ccc1Oc1cncnc1N1CC2(CCN(C[C@@H]3CC[C@@H](NS(=O)(=O)c4cnn(C(F)F)c4)CO3)CC2)C1)C(C)C [Example 85, 2-((4-(7-(((2S,5R)-5-((1-(Difluoromethyl)-1H-pyrazole)-4-sulfonamido)tetrahydro-2H-pyran-2-yl)methyl)-2,7-diazaspiro[3.5]nonan-2-yl)pyrimidin-5-yl)oxy)-5-fluoro-N,N-diisopropylbenzamide] | < 100 | + (<33%) | ++ (233% and ≤66%) |
| CC(C)N(C(=O)c1cc(F)ccc1Oc1cncnc1N1CC2(CCN(C[C@@H]3CC[C@@H](NS(=O)(=O)c4cnn(C)c4)CO3)CC2)C1)C(C)C [Example 86, 5-Fluoro-N,N-diisopropyl-2-((4-(7-(((2S,5R)-5-((1-methyl-1H-pyrazole)-4-sulfonamido)tetrahydro-2H-pyran-2-yl)methyl)-2,7-diazaspiro[3.5]nonan-2-2-yl)pyrimidin-5-yl)oxy)benzamide] | < 100 | +++ (≥66%) | +++ (≥66%) |
| CC(C)N(C(=O)c1cc(F)ccc1Oc1cncnc1N1CC2(CCN(C[C@@H]3CC[C@@H](NS(=O)(=O)c4ccn(C)n4)CO3)CC2)C1)C(C)C [Example 87, 5-Fluoro-N,N-diisopropyl-2-((4-(7-(((2S,5R)-5-((1-methyl-1H-pyrazole)-3-sulfonamido)tetrahydro-2H-pyran-2-yl)methyl)-2,7-diazaspiro[3.5]nonan-2-yl)pyrimidin-5-yl)oxy)benzamide] | < 100 | +++ (≥66%) | – |
| Cc1nc(S(=O)(=O)N[C@@H]2CC[C@@H](CN3CCC4(CC3)CN(c3ncncc3Oc3ccc(F)cc3C(=O)N(C(C)C)C(C)C)C4)OC2)co1 [Example 91, 5-Fluoro-N,N-diisopropyl-2-((4-(7-(((2S,5R)-5-((2-methyloxazole)-4-sulfonamido)tetrahydro-2H-pyran-2-yl)methyl)-2,7-diazaspiro[3.5]nonan-2-yl)pyrimidin-5-yl)oxy)benzamide] | < 100 | ++ (233% and ≤66%) | – |
| CC(C)N(CC(F)F)C(=O)c1cc(F)ccc1Oc1cncnc1N1CC2(CCN(C[C@@H]3CC[C@@H](NS(=O)(=O)c4cnn(C)c4)CO3)CC2)C1 [Example 100, N-(2,2-Difluoroethyl)-5-fluoro-N-isopropyl-2-((4-(7-(((2S,5R)-5-((1-methyl-1H-pyrazole)-4-sulfonamido)tetrahydro-2H-pyran-2-yl)methyl)-2,7-diazaspiro[3.5]nonan-2-yl)pyrimidin-5-yl)oxy)benzamide] | < 100 | +++ (≥66%) | +++ (≥66%) |
| CC(C)N(CC(F)F)C(=O)c1cc(F)ccc1Oc1cncnc1N1CC2(CCN(C[C@@H]3CC[C@@H](NS(=O)(=O)c4ccn(C)n4)CO3)CC2)C1 [Example 103, N-(2,2-Difluoroethyl)-5-fluoro-N-isopropyl-2-((4-(7-(((2S,5R)-5-((1-methyl-1H-pyrazole)-3-sulfonamido)tetrahydro-2H-pyran-2-yl)methyl)-2,7-diazaspiro[3.5]nonan-2-yl)pyrimidin-5-yl)oxy)benzamide] | < 100 | +++ (≥66%) | – |
| Cc1c(S(=O)(=O)N[C@@H]2CC[C@@H](CN3CCC4(CC3)CN(c3ncncc3Oc3ccc(F)cc3C(=O)N(CC(F)F)C(C)C)C4)OC2)cnn1C [Example 104, N-(2,2-Difluoroethyl)-2-((4-(7-(((2S,5R)-5-((1,5-dimethyl-1H-pyrazole)-4-sulfonamido)tetrahydro-2H-pyran-2-yl)methyl)-2,7-diazaspiro[3.5]nonan-2-yl)pyrimidin-5-yl)oxy)-5-fluoro-N-isopropylbenzamide] | < 100 | +++ (≥66%) | – |
| Cc1nn(C)cc1S(=O)(=O)N[C@@H]1CC[C@@H](CN2CCC3(CC2)CN(c2ncncc2Oc2ccc(F)cc2C(=O)N(CC(F)F)C(C)C)C3)OC1 [Example 105, N-(2,2-Difluoroethyl)-2-((4-(7-(((2S,5R)-5-((1,3-dimethyl-1H-pyrazole)-4-sulfonamido)tetrahydro-2H-pyran-2-yl)methyl)-2,7-diazaspiro[3.5]nonan-2-yl)pyrimidin-5-yl)oxy)-5-fluoro-N-isopropylbenzamide] | < 100 | +++ (≥66%) | – |
| CC(C)N(C(=O)c1cc(F)ccc1Oc1cncnc1N1CC2(CCN(C[C@@H]3CC[C@@H](NS(=O)(=O)c4cnn(C)c4)CO3)CC2)C1)C1CC(F)(F)C1 [Example 156, N-(3,3-Difluorocyclobutyl)-5-fluoro-N-isopropyl-2-((4-(7-(((2S,5R)-5-((1-methyl-1H-pyrazole)-4-sulfonamido)tetrahydro-2H-pyran-2-yl)methyl)-2,7-diazaspiro[3.5]nonan-2-yl)pyrimidin-5-yl)oxy)benzamide] | < 100 | +++ (≥66%) | – |
| CCN(C(=O)c1cc(F)ccc1Oc1cncnc1N1CC2(CCN(C[C@@H]3CC[C@@H](NS(=O)(=O)N4CCC[C@H]4C)CO3)CC2)C1)C(C)C [Example 200, N-Ethyl-5-fluoro-N-isopropyl-2-((4-(7-(((2S,5R)-5-(((R)-2-methylpyrrolidine)-1-sulfonamido)tetrahydro-2H-pyran-2-yl)methyl)-2,7-diazaspiro[3.5]nonan-2-yl)pyrimidin-5-yl)oxy)benzamide] | < 100 | + (<33%) | ++ (233% and ≤66%) |
| CCN(C(=O)c1cc(F)ccc1Oc1cncnc1N1CC2(CCN(C[C@@H]3CC[C@@H](NS(=O)(=O)N4CCC[C@@H]4C)CO3)CC2)C1)C(C)C [Example 201, N-Ethyl-5-fluoro-N-isopropyl-2-((4-(7-(((2S,5R)-5-(((S)-2-methylpyrrolidine)-1-sulfonamido)tetrahydro-2H-pyran-2-yl)methyl)-2,7-diazaspiro[3.5]nonan-2-yl)pyrimidin-5-yl)oxy)benzamide] | < 100 | + (<33%) | + (<33%) |
